Test [1] concerns the target hOXIR (orexin-1 receptor) (Homo sapiens, UniProt O43613). Briefly: FLIPR Ca2+ Flux Assay, orexin-1 receptor (hOXIR FLIPR). The following applies: CHO cells expressing the orexin-1 receptor (method text: rat; table head: hOXIR); agonist 70 pM Ala-6,12 human orexin-A. The class given is cell-based. The protocol: (§1) The utility of the compounds in accordance with the present invention as orexin receptor OX1R and/or OX2R antagonists may be readily determined without undue experimentation by methodology well known in the art, including the “FLIPR Ca^2+ Flux Assay” (Okumura et al., Biochem. Biophys. Res. Comm. 280:976-981, 2001). In a typical experiment the OX1 and OX2 receptor antagonistic activity of the compounds of the present invention was determined in accordance with the following experimental method. For intracellular calcium measurements, Chinese hamster ovary (CHO) cells expressing the rat orexin-1 receptor or the human orexin-2 receptor, are grown in Iscove's modified DMEM containing 2 mM L-glutamine, […], 1% hypoxanthine-thymidine supplement, 100 U/ml penicillin, 100 μg/ml streptomycin and 10% heat-inactivated fetal calf serum (FCS). The cells are seeded at 20,000 cells/well into Becton-Dickinson black 384-well clear bottom sterile plates coated with poly-D-lysine. All reagents were from GIBCO-Invitrogen Corp. The seeded plates are incubated overnight at 37° C. and 5% CO2. Ala-6,12 human orexin-A as the agonist is prepared as a 1 mM stock solution in 1% bovine serum albumin (BSA) and diluted in assay buffer (HBSS containing 20 mM HEPES, 0.1% BSA and 2.5 mM probenecid, pH7.4) for use in the assay at a final concentration of 70 pM. Test compounds are prepared as 10 mM stock solution in DMSO, then diluted in 384-well plates, first in DMSO, then assay buffer. On the day of the assay, cells are washed 3 times with 100 μl assay buffer and then incubated for 60 min (37° C., 5% CO2) in 60 μl assay buffer containing 1 μM Fluo-4AM ester, 0.02% pluronic acid, and 1% BSA. The dye loading solution is then aspirated and cells are washed 3 times with 100 μl assay buffer. 30 μl of that same buffer is left in each well. Within the Fluorescent Imaging Plate Reader (FLIPR, Molecular Devices), test compounds are added to the plate in a volume of 25 μl, incubated for 5 min and finally 25 μl of agonist is added. Fluorescence is measured for each well at 1 second intervals for 5 minutes and the height of each fluorescence peak is compared to the height of the fluorescence peak induced by 70 pM Ala-6,12 orexin-A with buffer in place of antagonist. For each antagonist, IC50 value (the concentration of compound needed to inhibit 50% of the agonist response) is determined. Alternatively, compound potency can be assessed by a radioligand binding assay (described in Bergman et. al. Bioorg. Med. Chem. Lett. 2008, 18, 1425-1430) in which the inhibition constant (Ki) is determined in membranes prepared from CHO cells expressing either the OX1 or OX2 receptor. The intrinsic orexin receptor antagonist activity of a compound which may be used in the present invention may be determined by these assays.
(In general: A change in cytosolic calcium serves as a functional read-out for many receptors and channels.)

Test [2] has as its target human orexin-2 receptor (Homo sapiens (Human), UniProt O43614). Briefly: FLIPR Ca2+ Flux Assay, orexin-2 receptor (hOX2R FLIPR). The class given is cell-based. The following applies: CHO cells expressing the human orexin-2 receptor; agonist 70 pM Ala-6,12 human orexin-A. Here is the method:
as §1

human orexin-2 receptor, sequence (O43614 whole entry): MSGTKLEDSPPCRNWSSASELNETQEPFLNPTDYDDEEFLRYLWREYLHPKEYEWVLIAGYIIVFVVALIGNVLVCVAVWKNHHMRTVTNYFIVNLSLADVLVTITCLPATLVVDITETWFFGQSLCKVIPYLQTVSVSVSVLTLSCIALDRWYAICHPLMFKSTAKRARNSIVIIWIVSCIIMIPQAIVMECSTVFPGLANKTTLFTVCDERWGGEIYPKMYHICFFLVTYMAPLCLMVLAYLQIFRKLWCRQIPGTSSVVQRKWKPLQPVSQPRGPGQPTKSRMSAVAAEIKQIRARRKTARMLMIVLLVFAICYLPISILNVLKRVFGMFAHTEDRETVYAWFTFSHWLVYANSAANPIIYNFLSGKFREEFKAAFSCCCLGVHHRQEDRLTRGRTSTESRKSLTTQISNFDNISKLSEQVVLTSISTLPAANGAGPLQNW

Take `C[C@@H]1CC[C@@H](n2ncc(C(C)(C)O)n2)CN1C(=O)c1ccccc1-n1nccn1` [Example 25, (2-(2H-1,2,3-triazol-2-yl)phenyl)((2R,5R)-5-(4-(2-hydroxypropan-2-yl)-2H-1,2,3-triazol-2-yl)-2-methylpiperidin-1-yl)methanone]: the IC50 in test [1] worked out at 0.594 µM; in test [2] it was 0.0075 µM.
In the same order, the values of `C[C@@H]1CC[C@@H](n2ncc([C@H](O)C(F)(F)F)n2)CN1C(=O)c1ccccc1-n1nccn1` [Example 26, (2-(2H-1,2,3-triazol-2-yl)phenyl) ((2R,5R)-2-methyl-5-(4-((S)-2,2,2-trifluoro-1-hydroxyethyl)-2H-1,2,3-triazol-2-yl)piperidin-1-yl)methanone] are over 10 µM and 0.0867 µM.
In the same order, the values of `C[C@@H]1CC[C@@H](n2ncc([C@@H](O)C(F)(F)F)n2)CN1C(=O)c1ccccc1-n1nccn1` [Example 27, (2-(2H-1,2,3-triazol-2-yl)phenyl)((2R,5R)-2-methyl-5-(4-((R)-2,2,2-trifluoro-1-hydroxyethyl)-2H-1,2,3-triazol-2-yl)piperidin-1-yl)methanone] are 0.505 µM and 0.0179 µM.
With `C[C@@H]1CC[C@@H](n2ncc(-c3ccccc3)n2)CN1C(=O)c1ccccc1-n1nccn1` [Example 28, (2-(2H-1,2,3-triazol-2-yl)phenyl)((2R,5R)-2-methyl-5-(4-phenyl-2H-1,2,3-triazol-2-yl)piperidin-1-yl)methanone], the IC50 in test [1] turned out to be 0.054 µM; in test [2], 0.0697 µM.
Consider `C[C@@H]1CC[C@@H](n2ncc(Br)n2)CN1C(=O)c1ccccc1-n1nccn1` [Example 29, (2-(2H-1,2,3-triazol-2-yl)phenyl)((2R,5R)-5-(4-bromo-2H-1,2,3-triazol-2-yl)-2-methylpiperidin-1-yl)methanone], for which the IC50 in test [1] was over 10 µM; in test [2], 0.362 µM.
In the same order, the values of `Cc1nc(-c2ccc(F)cc2C(=O)N2C[C@H](n3ncc(C(C)(C)O)n3)CC[C@H]2C)no1` [Example 30, (5-Fluoro-2-(5-methyl-1,2,4-oxadiazol-3-yl)phenyl)((2R,5R)-5-(4-(2-hydroxypropan-2-yl)-2H-1,2,3-triazol-2-yl)-2-methylpiperidin-1-yl)methanone] are over 10 µM and 0.139 µM.
In the same order, the values of `C[C@@H]1CC[C@@H](n2ncc(C(C)(C)O)n2)CN1C(=O)c1cccc(F)c1-n1nccn1` [Example 31, 2-{2-[(3R,6R)-1-{[3-fluoro-2-(2H-1,2,3-triazol-2-yl)phenyl]carbonyl}-6-methylpiperidin-3-yl]-2H-1,2,3-triazol-4-yl}propan-2-ol] are over 10 µM and 0.0364 µM.
In the same order, the values of `C[C@@H]1CC[C@@H](n2ncc(C(C)(C)O)n2)CN1C(=O)c1sccc1-n1nccn1` [Example 32, 2-{2-[(3R,6R)-6-methyl-1-{[3-(2H-1,2,3-triazol-2-yl)thiophen-2-yl]carbonyl}piperidin-3-yl]-2H-1,2,3-triazol-4-yl}propan-2-ol] are over 10 µM and 0.0896 µM.
As to `C[C@@H]1CC[C@@H](n2ncc(C(C)(C)O)n2)CN1C(=O)c1ccsc1-n1nccn1` [Example 33, 2-{2-[(3R,6R)-6-methyl-1-{[2-(2H-1,2,3-triazol-2-yl)thiophen-3-yl]carbonyl}piperidin-3-yl]-2H-1,2,3-triazol-4-yl}propan-2-ol], the IC50 worked out at 2.56 µM in test [1] and 0.0184 µM in test [2].
In the same order, the values of `C[C@@H]1CC[C@@H](n2ncc(C(C)(C)O)n2)CN1C(=O)c1ccccc1-n1ncnn1` [Example 34, 2-{2-[(3R,6R)-6-methyl-1-{[2-(2H-tetrazol-2-yl)phenyl]carbonyl}piperidin-3-yl]-2H-1,2,3-triazol-4-yl}propan-2-ol] are over 10 µM and 0.0368 µM.
In the same order, the values of `Cc1noc(-c2ccc(F)cc2C(=O)N2C[C@H](n3ncc(C(C)(C)O)n3)CC[C@H]2C)n1` [Example 35, 2-{2-[(3R,6R)-1-{[5-fluoro-2-(3-methyl-1,2,4-oxadiazol-5-yl)phenyl]carbonyl}-6-methylpiperidin-3-yl]-2H-1,2,3-triazol-4-yl}propan-2-ol] are over 10 µM and 0.593 µM.
In the same order, the values of `Cc1noc(-c2ccccc2C(=O)N2C[C@H](n3ncc(C(C)(C)O)n3)CC[C@H]2C)n1` [Example 36, 2-{2-[(3R,6R)-6-methyl-1-{[2-(3-methyl-1,2,4-oxadiazol-5-yl)phenyl]carbonyl}piperidin-3-yl]-2H-1,2,3-triazol-4-yl}propan-2-ol] are over 10 µM and 0.0629 µM.
In the case of `Cc1nc(-c2c(F)cccc2C(=O)N2C[C@H](n3ncc(C(C)(C)O)n3)CC[C@H]2C)no1` [Example 37, 2-{2-[(3R,6R)-1-{[3-fluoro-2-(5-methyl-1,2,4-oxadiazol-3-yl)phenyl]carbonyl}-6-methylpiperidin-3-yl]-2H-1,2,3-triazol-4-yl}propan-2-ol], the IC50 is over 10 µM in test [1] and 0.0752 µM in test [2].
For the molecule `C[C@@H]1CC[C@@H](n2ncc(C(C)(C)O)n2)CN1C(=O)c1cc(F)ccc1-n1nccn1` [Example 38, 2-{2-[(3R,6R)-1-{[5-fluoro-2-(2H-1,2,3-triazol-2-yl)phenyl]carbonyl}-6-methylpiperidin-3-yl]-2H-1,2,3-triazol-4-yl}propan-2-ol], the IC50 in test [1] was over 10 µM; in test [2], 0.0275 µM.
In the same order, the values of `C[C@@H]1CC[C@@H](n2ncc(C(C)(C)O)n2)CN1C(=O)c1ccc(F)cc1-n1nccn1` [Example 39, 2-{2-[(3R,6R)-1-{[4-fluoro-2-(2H-1,2,3-triazol-2-yl)phenyl]carbonyl}-6-methylpiperidin-3-yl]-2H-1,2,3-triazol-4-yl}propan-2-ol] are over 10 µM and 0.0271 µM.
In the same order, the values of `Cc1nc(-c2cc(F)ccc2C(=O)N2C[C@H](n3ncc(C(C)(C)O)n3)CC[C@H]2C)no1` [Example 40, 2-{2-[(3R,6R)-1-{[4-fluoro-2-(5-methyl-1,2,4-oxadiazol-3-yl)phenyl]carbonyl}-6-methylpiperidin-3-yl]-2H-1,2,3-triazol-4-yl}propan-2-ol] are over 10 µM and 0.0867 µM.
In the same order, the values of `Cc1noc(-c2cc(F)ccc2C(=O)N2C[C@H](n3ncc(C(C)(C)O)n3)CC[C@H]2C)n1` [Example 41, 2-{2-[(3R,6R)-1-{[4-fluoro-2-(3-methyl-1,2,4-oxadiazol-5-yl)phenyl]carbonyl}-6-methylpiperidin-3-yl]-2H-1,2,3-triazol-4-yl}propan-2-ol] are over 10 µM and 0.173 µM.
As for `C[C@@H]1CC[C@@H](n2ncc(C(C)(C)O)n2)CN1C(=O)c1nccnc1-c1ccccn1` [Example 42, 2-(2-{(3R,6R)-6-methyl-1-[(3-pyridin-2-ylpyrazin-2-yl)carbonyl]piperidin-3-yl}-2H-1,2,3-triazol-4-yl)propan-2-ol], the IC50 in test [1] was over 10 µM; in test [2] it was 0.622 µM.
In the same order, the values of `C[C@@H]1CC[C@@H](n2ncc(C(C)(C)O)n2)CN1C(=O)c1nccnc1-n1cccn1` [Example 43, 2-{2-[(3R,6R)-6-methyl-1-{[3-(1H-pyrazol-1-yl)pyrazin-2-yl]carbonyl}piperidin-3-yl]-2H-1,2,3-triazol-4-yl}propan-2-ol] are over 10 µM and 0.109 µM.
As for `COCCc1ccccc1C(=O)N1C[C@H](n2ncc(C(C)(C)O)n2)CC[C@H]1C` [Example 44, 2-{2-[(3R,6R)-1-{[2-(2-methoxyethyl)phenyl]carbonyl}-6-methylpiperidin-3-yl]-2H-1,2,3-triazol-4-yl}propan-2-ol], the IC50 in test [1] was over 10 µM; in test [2], 0.897 µM.
In the same order, the values of `COc1ccc(C(=O)N2C[C@H](n3ncc(C(C)(C)O)n3)CC[C@H]2C)c(-n2nccn2)n1` [Example 45, 2-{2-[(3R,6R)-1-{[6-methoxy-2-(2H-1,2,3-triazol-2-yl)pyridin-3-yl]carbonyl}-6-methylpiperidin-3-yl]-2H-1,2,3-triazol-4-yl}propan-2-ol] are over 10 µM and 0.0514 µM.
In the same order, the values of `Cc1cccc(C(=O)N2C[C@H](n3ncc(C(C)(C)O)n3)CC[C@H]2C)c1-n1nccn1` [Example 46] are over 10 µM and 0.0564 µM.

Broadly, the IC50 is the concentration at which inhibition is half-maximal.

(Values after patent US10010539B2, “Pyrazole, triazole and tetrazole orexin receptor antagonists” (MERCK SHARP & DOHME CORP., priority 2014, dated 2018).)
